{"source": "patent US20090298940A1", "about": "“All Natural Antifungal And Antimicrobial Composition And Method Thereof” (priority 2008, published 2009)", "origin": "cited, not measured here", "key": {"[1]": {"settings": "when administered internally"}, "[2]": {"settings": "at 20° C."}}, "data": [{"smiles": "C/C=C/C=C/C(=O)[O-].[K+]", "note": "[potassium sorbate, potassium (E,E)-hexa-2,4-dienoate]", "values": [{"measurement": "tolerability", "setting": "[1]", "result": "well tolerated"}, {"measurement": "solubility in water", "setting": "[2]", "result": 58.2, "unit": "%"}]}]}
